Where two headings read alike, the source gives them in different places.
Columns and labels:
[1] = biological target: T1, ConA (Canavalia ensiformis, UniProt P02866); conditions: cited from earlier work
[2] = biological target: T1, ConA
Description: To explore whether the interaction of ConA with the core trimannose leads to aggregation in free solution, dynamic light scattering (DLS) measurements were performed. […] The TRIS buffer was 10 mM TRIS, 1 M NaCl, 1 mM CaCl2, 1 mM MnCl2, at pH 7.4. The dextran was 2 MDa and used as received from Sigma.
As controls, solutions of the individual components were also scanned to determine the particle size in the absence of aggregation. The final concentration was 3 μM for the competing ligand and 3 μM for ConA. Negative controls were run for each competing ligand (3 μM) without ConA present. ConA was also independently added to a separate control cuvette (3 μM). All solutions were in TRIS buffer and were filtered prior to combining the solutions. After 12 hours, the solutions were mixed to allow for the re-suspension of any settled material and dynamic light scattering studies were performed. The reported data is the average particle size as determined by percent-volume.

O=C[C@H](O)[C@@H](O)[C@@H](O)[C@H](O)CO [galactose]
affinity to ConA [1]: no affinity

OC[C@H]1O[C@H](OC[C@H]2OC(O)[C@@H](O)[C@@H](O[C@H]3O[C@H](CO)[C@@H](O)[C@H](O)[C@@H]3O)[C@@H]2O)[C@@H](O)[C@@H](O)[C@@H]1O (stereo partly drawn) [trimannose, 3,6-Di-O-(α-D-mannopyranosyl)-D-mannopyranose]
affinity to ConA ([1]; previously shown / literature value): ~330000 M⁻¹ | average size of particles in solution with ConA ([2]; 3 μM ligand, 3 μM ConA, TRIS buffer, 12 hours, 22° C., DLS): did not increased in size | aggregation when paired with ConA ([2]; summary statement, DLS study): no aggregation

methyl mannose
binding affinity to ConA relative to glucose ([1]; known value): 20-40 times

From patent US20140350370A1, “GLUCOSE SENSING ASSAY” (The Texas A&M University System, priority 2013, published 2014)
